Experimental data from patent publication US6844353B2, “Fungicidal properties of sampangine and its analogs to agriculturally important fungal plant pathogens” (The United States of America as represented by the …, priority 2003, dated 2005).
Read-outs that look alike come from different tables or passages of the source.

What was measured:
C. gloeosporioides = assay: 96-well microtiter plate assay, fungal growth inhibition; type: cell-based, Colletotrichum gloeosporioides; conditions: Colletotrichum gloeosporioides, C. gloeosporioides, read-out: Percent inhibition−Percent Stimulation±SEM
C. fragariae = assay: as above; type: cell-based, Colletotrichum fragariae; conditions: Colletotrichum fragariae, C. fragariae, read-out: Percent inhibition−Percent Stimulation±SEM
F. oxysporum = assay: as above; type: cell-based, Fusarium oxysporum; conditions: Fusarium oxysporum, F. oxysporum, read-out: Percent inhibition−Percent Stimulation±SEM
Procedure, shortened: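 First, conidia from 7-10 day-old cultures were filtered and set photometrically to 1.0×10^6 conidia/mL. Next, wells received compound at final 0.3, 3.0 or 30.0 μM and incubated at 24±1° C. with 12 hour photoperiod. Finally, mean absorbance at 620 nm after 46 and 72 hours gave growth.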

C. acutatum = assay: as above; type: cell-based, Colletotrichum acutatum; conditions: Colletotrichum acutatum, C. acutatum, read-out: Percent inhibition−Percent Stimulation±SEM
B. cinerea = assay: as above; type: cell-based, Botrytis cinerea; conditions: Botrytis cinerea, B. cinerea, read-out: Percent inhibition−Percent Stimulation±SEM
[1] = tested on: C. fragariae isolate CF-75; assay: Detached strawberry leaf assay; type: in vivo, Colletotrichum fragariae; conditions: detached strawberry leaves (cultivar Chandler), five days after application
Excerpt: Strawberry plants of the cultivar Chandler were maintained in a warm greenhouse under conditions suitable for optimum vegetative growth. The youngest fully expanded leaf with the entire petiole from each plant was collected. The petiole of each leaf was inserted into a small test tube (10×4 mm) and filled with sterile distilled water. The left leaflet of each leaf was inoculated with C. fragariae isolate CF-75 (1.5×10^6 conidia/ml) using a hand pump sprayer. The inoculated leaves were placed in a dew chamber and incubated overnight at 30° C. and 100% relative humidity, removed from the dew chamber and allowed to dry. The test compound was applied using a chromatography sprayer until the upper surface of each leaflet was coated. After allowing the leaves to air dry for 2 hours, the right leaflet of each leaf was inoculated with C. fragariae isolate CF-75. The leaves were incubated in the dew chamber at 30° C. and 100% relative humidity for 48 hours. The leaves were then removed from the dew chamber and held in a moist chamber for 3 days (total of five days since test compounds were applied). The number of lesions on each leaflet were then counted.

## O=C1c2ccccc2-c2nccc3ccnc1c23 [Sampangine]
C. gloeosporioides; 48 hrs
  inhibition at 0.3 µM: 63.8 ± 8.6%
  inhibition at 3 µM: 98.3 ± 0.6%
  inhibition at 30 µM: 99.2 ± 0.8%
C. gloeosporioides; 72 hrs
  inhibition at 0.3 µM: 32.9 ± 8.3%
  inhibition at 3 µM: 98.8 ± 0.4%
  inhibition at 30 µM: 99.7 ± 0.4%
C. fragariae; 48 hrs
  inhibition at 0.3 µM: 55.7 ± 4.5%
  inhibition at 3 µM: 96.9 ± 0.8%
  inhibition at 30 µM: 99.6 ± 0.9%
C. fragariae; 72 hrs
  inhibition at 0.3 µM: 32.6 ± 5%
  inhibition at 3 µM: 96.8 ± 0.4%
  inhibition at 30 µM: 100 ± 0.4%
F. oxysporum; 48 hrs
  inhibition at 0.3 µM: 14.7 ± 4.4%
  inhibition at 3 µM: 86.6 ± 2.8%
  inhibition at 30 µM: 100 ± 0.4%
F. oxysporum; 72 hrs
  inhibition at 0.3 µM: 4.9 ± 2.3%
  inhibition at 3 µM: 42.9 ± 3.1%
  inhibition at 30 µM: 100 ± 0.4%
C. acutatum; 48 hrs
  inhibition at 0.3 µM: 13.6 ± 5.8%
  inhibition at 3 µM: 96.8 ± 0.5%
  inhibition at 30 µM: 100 ± 0.6%
C. acutatum; 72 hrs
  inhibition at 0.3 µM: 6 ± 5.1%
  inhibition at 3 µM: -6.2 ± 3.8%
  inhibition at 30 µM: 100 ± 0.2%
B. cinerea; 48 hrs
  inhibition at 0.3 µM: 27.2 ± 18.6%
  inhibition at 3 µM: 29.7 ± 24.8%
  inhibition at 30 µM: 36.9 ± 26.7%
B. cinerea; 72 hrs
  inhibition at 0.3 µM: 37 ± 21.8%
  inhibition at 3 µM: 40.1 ± 20.6%
  inhibition at 30 µM: 47.5 ± 27.1%
[1]; Concentration 625 (unit not given)
  Disease severity scores (# disease lesions): 8.31
[1]; Concentration 1250 (unit not given)
  Disease severity scores (# disease lesions): 1.26
[1]; Concentration 2500 (unit not given)
  Disease severity scores (# disease lesions): 0.80
